The record followed here is patent US20100056606A1, “Combination therapy using budesonide and antisense oligonucleotide targeted to IL4-receptor alpha” (ISIS Pharmaceuticals, Inc., priority 2005, published 2010).

In data set [1] the test system is OVA sensitized mice. Briefly: Acute allergic inflammation mouse model with inhaled budesonide and/or ISIS 231894. The data set is classed as in vivo.
Protocol: In the mouse model of allergic inflammation, mice are sensitized and challenged with aerosolized chicken ovalbumin (OVA). Airway responsiveness is assessed by inducing airflow obstruction using a noninvasive method whereby unrestrained conscious OVA sensitized mice are placed into the main chamber of a plethysmograph (Buxco Electronics, Inc. Troy, N.Y.) and challenged with aerosolized methacholine. Pressure difference between this chamber and a reference chamber is used to extrapolate minute volume, breathing frequency and enhanced pause (Penh). Penh is a dimensionless parameter that is a function of total pulmonary airflow (i.e. the sum of the airflow in the upper and lower respiratory tracts) during the respiratory cycle of a mouse and is lower when airflow is greater.
For the acute model of allergic inflammation, mice were sensitized with 20 μg of alum-precipitated OVA was injected intraperitoneally on days 0 and 14. On days 24, 25 and 26, animals were exposed for 20 minutes to 1% OVA (in saline) by ultrasonic nebulization. On days 17, 19, 21, 24 and 26 animals were dosed with vehicle alone (saline), 1 μg/kg or 10 μg/kg of ISIS 231894 or the mismatch control oligonucleotide. Oligonucleotides or vehicle were suspended in 0.9% sodium chloride and delivered via inhalation using a nose-only aerosol delivery exposure system. A Lovelace nebulizer set at a flow rate of 1.4 liter per minute feeding into a total flow rate of 10 liters per minute was used to deliver the oligonucleotide. The exposure chamber was equilibrated with an oligonucleotide aerosol solution for 5 minutes before mice were placed in a restraint tube attached to the chamber. Restrained mice were treated for a total of 10 minutes. Analysis was performed on day 28.
The acute mouse model of allergic inflammation was used to determine if co-administration of inhaled IL-4R alpha antisense oligonucleotide would enhance the activity of inhaled budesonide, or reduce the dose required to produce anti-inflammatory activity. As described in Example 6, mice were sensitized with alum-precipitated OVA at day 0 and day 14 and nebulized with OVA in saline on days 24, 25 and 26. All mice were analyzed on day 28. Budesonide (0.3, 3, 30, and 300 μg/kg dissolved in PBS Containing 20% DMSO) was administered by nose-only aerosol exposure beginning on day 23 (24 and 20 hours before OVA exposure) and then daily through day 26, one hour prior to daily OVA exposure. The 30 μg/kg dose was also administered twice a day (bid) from day 23-26 as a separate group. As in Example 6, ISIS 231894 was administered by nose-only aerosol exposure at day 17, 19, 21, 23 and 26.
The effect of budesonide and/or ISIS 231894 treatment on AHR, BAL eosinophil infiltration and mucus accumulation (number of PAS-positive airways) were determined.
Data set [2] relates to OVA sensitized mice. The data set can be described thus: Allergic rhinitis mouse model, intranasal administration. The data set is classed as in vivo. As for the experimental part:
In a mouse model of allergic rhinitis, animals were sensitized intraperitoneally with alum-precipitated OVA on days 1, 5, 10 and 15. OVA diluted with saline was administered intranasally (25 μL of 500 μg OVA in each nare) daily, on days 18-22, 25-29, and 32-35. ISIS 231894 and budesonide were administered intranasally, with budesonide administration one hour before each intranasal OVA challenge. ISIS 231894 was administered on days 11, 13, 15, and one hour before each intranasal OVA challenge. Endpoints were evaluated on day 36 and included nasal mucus accumulation (nasal histopathology) nasal eosinophilia, neutrophilia (by nasal lavage analysis and microscopic eosinophil counts in epithelial tissue) and allergic symptoms (numbers of sneezes and nose-rubs observed over a fixed time period).

The conditions of data set [3]: mouse, in vivo.
Another data set deals with IL-4R alpha mRNA. The data set can be described thus: Dose-dependent reduction of IL-4R alpha mRNA in human A549 cells. The data set is classed as cell-based. An excerpt: The human lung carcinoma cell line A549 was obtained from the American Type Culture Collection (Manassas, Va.). A549 cells were routinely cultured in DMEM, high glucose (Invitrogen Life Technologies, Carlsbad, Calif.) supplemented with 10% fetal bovine serum, 100 units per ml penicillin, and 100 micrograms per ml streptomycin (Invitrogen Life Technologies, Carlsbad, Calif.). Cells were routinely passaged by trypsinization and dilution when they reached approximately 90% confluence. Cells were seeded into 96-well plates (Falcon-Primaria #3872) at a density of approximately 5000 cells/well for use in oligomeric compound transfection experiments.
When cells reach appropriate confluency, they are treated with oligonucleotide using Lipofectin™ as described. When cells reached 65-75% confluency, they were treated with oligonucleotide. Oligonucleotide was mixed with LIPOFECTIN™ Invitrogen Life Technologies, Carlsbad, Calif.) in Opti-MEM™-1 reduced serum medium (Invitrogen Life Technologies, Carlsbad, Calif.) to achieve the desired concentration of oligonucleotide and a LIPOFECTIN™ concentration of 2.5 or 3 […] oligonucleotide. This transfection mixture was incubated at room temperature for approximately 0.5 hours. For cells grown in 96-well plates, wells were washed once with 100 μL OPTI-MEM™-1 and then treated with 130 μL of the transfection mixture. Cells grown in 24-well plates or other standard tissue culture plates are treated similarly, using appropriate volumes of medium and oligonucleotide. […]
Quantitation of IL-4R alpha mRNA levels was accomplished by real-time quantitative PCR using the ABI PRISM™ 7600, 7700, or 7900 Sequence Detection System (PE-Applied Biosystems, Foster City, Calif.) according to manufacturer's instructions.
In both cell types, at concentrations of 100 nM, 50 nM and 25 nM, ASOs 1-4 each caused dose-dependent reduction of target (TL-4R alpha) mRNA and protein (as measured by flow cytometry) with no significant effect on total cellular mRNA, measured 24 hours following ASO treatment.

Another data set concerns MUC2 mRNA. The data set can be described thus: Reduction of cytokine-induced MUC2 mRNA in human cells. It counts as cell-based. The conditions noted are these: human A549 cells (table title).
The subject of data set [4] is OVA sensitized mice. Briefly: Mouse model of allergic inflammation, chronic model (Penh, BAL cells, cytokines). Particulars: 2.5 mg/kg intraperitoneal, day 76. The data set is classed as in vivo. The procedure:
In the mouse model of allergic inflammation, mice are sensitized and challenged with aerosolized chicken ovalbumin (OVA). Airway responsiveness is assessed by inducing airflow obstruction using a noninvasive method whereby unrestrained conscious OVA sensitized mice are placed into the main chamber of a plethysmograph (Buxco Electronics, Inc. Troy, N.Y.) and challenged with aerosolized methacholine. Pressure difference between this chamber and a reference chamber is used to extrapolate minute volume, breathing frequency and enhanced pause (Penh). Penh is a dimensionless parameter that is a function of total pulmonary airflow (i.e. the sum of the airflow in the upper and lower respiratory tracts) during the respiratory cycle of a mouse and is […] when airflow is greater. This parameter closely correlates with lung resistance as measured by traditional, invasive techniques using ventilated animals (Hamelmann et al., 1997, Am. J. Respir. Crit. Care Med. 156:766-775).
In the chronic model of allergic inflammation, mice are subjected to repeated intranasal OVA administration, producing a chronic inflammatory response. In this model, mice were sensitized by intraperitoneal injection with 100 μg of OVA on days 0 and 14 as in the previous models. OVA was administered at a dose of 500 μg on days 14, 27, 28, 29, 47, 61, 73, 74 and 75. Oligonucleotide, either ISIS 231894 or the mismatch control, was administered via the nose-only aerosol delivery exposure system at a dose of either 5 μg/kg or 500 μg/kg on days 31, 38, 45, 52, 59, 66 and 73. Dexamethasone, an anti-inflammatory agent, was administered by intraperitoneal injection at 2.5 mg/kg on days 47, 62, 73, 74 and 75. Analysis of endpoints was performed on day 76, except cytokines which were evaluated on day 62, 6 hours post OVA challenge. Endpoints were similar to those in the acute and rechallenge model, and included Penh (AHR), BAL inflammatory cell accumulation and cytokines and mucus accumulation.

The mark [5] stands for this setting: 30 μg/kg budesonide alone (Table 9).
The mark [6] stands for this setting: Table 11, 35 μg/kg + 5% DMSO intranasal.
[7] abbreviates: Table 11, 35 μg/kg + 20% DMSO intranasal.

On to `CCCC1O[C@@H]2C[C@H]3[C@@H]4CCC5=CC(=O)C=C[C@]5(C)[C@H]4[C@@H](O)C[C@]3(C)[C@]2(C(=O)CO)O1` (some centres unmarked) [budesonide], for which the “% Eosinophils (BAL)” value in the data set on OVA sensitized mice [1] (0.3 μg/kg inhaled (Table 8)) is listed as 41%; in the data set with OVA sensitized mice [1] (3 μg/kg inhaled (Table 8)) it was 32%; in the data set with OVA sensitized mice [1] (30 μg/kg bid inhaled), 20%; in the data set with OVA sensitized mice [1] (setting [5]), 20%; in the data set on OVA sensitized mice [1] (30 μg/kg inhaled (Table 8)), 21%; in the data set with OVA sensitized mice [1] (300 μg/kg inhaled (Table 8)), 15%. Also, the “Penh (100 mg/mL methacholine)” value in the data set with OVA sensitized mice [1] (0.3 μg/kg inhaled (Table 8)) came out at 4.75; in the data set with OVA sensitized mice [1] (3 μg/kg inhaled (Table 8)), 4.5; in the data set on OVA sensitized mice [1] (30 μg/kg bid inhaled) it was 3.25; in the data set on OVA sensitized mice [1] (setting [5]) it was 5.5; with OVA sensitized mice [1] (30 μg/kg inhaled (Table 8)), 3.25; in the data set on OVA sensitized mice [1] (300 μg/kg inhaled (Table 8)), 3.75. For the same compound, the “PAS+ airways (mucus accumulation)” value with OVA sensitized mice [1] (setting [5]) was found to be 18. The minimum effective dose with OVA sensitized mice [1] (inhaled) came to 0.03 mg/kg. Moreover, the Nasal rubs stood at 5 per 5 min with OVA sensitized mice [2] (Table 10, 3.5 μg/kg intranasal); 4.5 per 5 min in the data set with OVA sensitized mice [2] (Table 10, 35 μg/kg intranasal); 4 per 5 min in the data set with OVA sensitized mice [2] (Table 10, 350 μg/kg intranasal); 2 per 5 min with OVA sensitized mice [2] (Table 10, 500 μg/kg intranasal); 0.6 per 5 min in the data set with OVA sensitized mice [2] (setting [6]); 1.2 per 5 min in the data set on OVA sensitized mice [2] (setting [7]). The Sneezes worked out at 6 per 5 min in the data set with OVA sensitized mice [2] (Table 10, 3.5 μg/kg intranasal); 2 per 5 min in the data set with OVA sensitized mice [2] (Table 10, 35 μg/kg intranasal); 3 per 5 min with OVA sensitized mice [2] (Table 10, 350 μg/kg intranasal); 2 per 5 min with OVA sensitized mice [2] (Table 10, 500 μg/kg intranasal); 2.8 per 5 min in the data set on OVA sensitized mice [2] (setting [6]); 5.8 per 5 min with OVA sensitized mice [2] (setting [7]). Also, the “% Nasal lavage eosinophils” value is recorded as 11% with OVA sensitized mice [2] (Table 10, 35 μg/kg intranasal); 4% in the data set with OVA sensitized mice [2] (Table 10, 350 μg/kg intranasal); 2% in the data set on OVA sensitized mice [2] (Table 10, 500 μg/kg intranasal); 7% with OVA sensitized mice [2] (setting [6]); 7% in the data set on OVA sensitized mice [2] (setting [7]). The “% Nasal lavage neutrophils” value was 28% with OVA sensitized mice [2] (Table 10, 35 μg/kg intranasal); 12% with OVA sensitized mice [2] (Table 10, 350 μg/kg intranasal); 6% in the data set with OVA sensitized mice [2] (Table 10, 500 μg/kg intranasal); 9% in the data set on OVA sensitized mice [2] (setting [6]); 12% in the data set with OVA sensitized mice [2] (setting [7]). For the same compound, the Tissue eosinophils with OVA sensitized mice [2] (setting [6]) is 174 per mm^2.

Consider “ASO3: antisense oligonucleotide targeted to human IL-4R alpha; TGGAAAGGCTTATACCCCTC; SEQ ID NO: 25 (chemistry not given here)”, for which the “macrophage infiltrate in the lung, in words” value in data set [3] is “dose-related macrophage infiltrate was observed”. Also, the “serum chemistry markers or lung morphology (histology), in words” value in data set [3] (ip) is reported as “no change”. Besides, the “IL-4R alpha mRNA” value is listed as 45 % of untreated control in the data set on IL-4R alpha mRNA (25 nM), 29 % of untreated control in the data set with IL-4R alpha mRNA (50 nM) and 17 % of untreated control in the data set on IL-4R alpha mRNA (100 nM). In addition, the “MUC-2 mRNA” value is recorded as 86 % of untreated control with MUC2 mRNA (25 nM), 63 % of untreated control in the data set on MUC2 mRNA (50 nM) and 39 % of untreated control in the data set on MUC2 mRNA (100 nM).

Turning to `C[C@@H]1C[C@H]2[C@@H]3CCC4=CC(=O)C=C[C@]4(C)[C@@]3(F)[C@@H](O)C[C@]2(C)[C@@]1(O)C(=O)CO` [dexamethasone, reference compound], in the data set on OVA sensitized mice [4], the “% Eosinophils (BAL)” value stood at 25% and the “% Neutrophils (BAL)” value is listed as 58%.
